Measured values published in patent US20050014783A1, “Use of Rho-kinase inhibitors in the treatment of aneurysm and cardiac hypertrophy” (Schering Aktiengesellschaft, priority 2003, published 2005).
Marks after values point to notes of the source that are not given here.

What was measured:
[1] = test system: ApoE-KO mice infused with angiotensin II; experiment: Angiotensin II-induced abdominal aortic aneurysm in apoE-KO mice; format: in vivo
Excerpt: Infusion of apoE-KO mice (Jackson Laboratories, Bar Harbor, Me.) with angiotensin II has been reported to lead to the formation of large abdominal aortic aneurysms (Daugherty et al. (2000) J. Clin. Invest. 105:1605-1612). This system can be used as a model system in which to study the effects of the Rho-kinase inhibitors of the present invention on these conditions, using the methods described in Wang et al. (2001) American J. Path. 159:1455-1464. (See Example 1).
(§1) For some parameters measured, comparative data was also collected for C57 Black mice, the mouse strain from which the ApoE-KO mouse is derived.

[2] = test system: ApoE-KO mice infused with angiotensin II; experiment: Angiotensin II-induced cardiac hypertrophy in apoE-KO mice; format: in vivo
[3] = test system: supra-renal aortic wall in apoE-KO mice; experiment: Apoptosis in aortic tissue (TUNEL, cell death detection ELISA, H & E staining); format: in vivo; settings: for apoptosis: TUNEL staining, supra-renal aorta, FIG. 2
Method: FIG. 3. To further quantify apoptosis in the aortic tissue, cell death detection ELISA assay was performed.

[4] = test system: ApoE-KO mice infused with angiotensin II; experiment: Blood pressure, heart rate, serum cholesterol, aortic arch lesion area and aortic stiffness in Ang II-infused apoE-KO mice; format: in vivo
Excerpt: as §1

[5] = test system: Rho-kinase; settings: cited from earlier work

O=S(=O)(c1cccc2cnccc12)N1CCCNCC1 [Fasudil, Hexahydro-1-(5-isoquinolylsulfonyl)-1H-1,4-diazepine]
Diameter (mm) ([1]; Ang II for 30 days, fasudil in drinking water, postmortem direct measurement): 1.5 ± 0.1 mm | Incidence (%) ([1]; abdominal aortic aneurysm, Ang II 1.44 mg/kg per day for 30 days, fasudil 1 mg/ml in drinking water): 41# % | incidence of abdominal aortic aneurysm formation ([1]; oral, >100 mg/kg daily in drinking water, n=20, p<0.05 vs. controls): 35% | decrease in the size of aneurysms ([1]; versus Ang II treated ApoE-KO mice, FIG. 1, fasudil 0.5 mg/ml and 1 mg/ml in drinking water): 29% | Heart/body Wt ([2]; Ang II for 30 days, fasudil in drinking water): 6.1 ± 0.1 | Myocyte (mm^2) ([2]; cardiomyocyte size, Ang II for 30 days, fasudil in drinking water): 262 ± 16# mm^2 | gene expression of ANP and collagen III ([2]; heart of apoE-KO mice): normalized | angiotensin-II induced cardiac hypertrophy ([2]; measured by heart weight or cardiomyocyte size): significantly reduced | cardiac function ([2]; mouse, in vivo): improved | perivascular fibrosis ([2]; mouse, in vivo): reduced | decrease in the degree of cardiac hypertrophy ([2]; versus Ang II treated ApoE-KO mice, FIG. 4, fasudil 0.5 mg/ml and 1 mg/ml): 14% | aortic wall changes (adventitial fibrosis, inflammation, destruction of smooth muscle cells and elastin) ([3]; H & E staining, high dose fasudil, animals with aneurysm): ameliorated, but not fully eliminated | apoptosis [3]: reducing apoptosis | apoptosis ([3]; listed as fasudil): decreased apoptosis | cytosolic DNA fragmentation increased by Ang II ([3]; cell death detection ELISA, aortic tissue, P<0.01, FIG. 3): abolished | Lesion (%) ([4]; aortic arch atherosclerotic lesion area, Ang II for 30 days, fasudil in drinking water): 25 ± 3% | effect on aortic arch atherosclerotic lesion area ([4]; mouse, in vivo): no effect | effect on aortic stiffness ([4]; mouse, in vivo): no effect | effect on serum cholesterol ([4]; mouse, in vivo): no effect | effect on heart rate ([4]; tail cuff instrumentation): no effect | effect on systolic blood pressure (SBP) ([4]; tail cuff instrumentation): no effect

O=S(=O)(c1cccc2c(O)nccc12)N1CCCNCC1 [hydroxyfasudil]
specificity of the inhibitory effect on Rho-kinase [5]: more specific inhibitory effect on Rho-kinase
